Laboratory results: US6849650B2, “Heterocyclic compounds, pharmaceutical compositions comprising same, and methods for inhibiting β-amyloid peptide release and/or its synthesis by use of such compounds” (Athena Neurosciences, Inc., priority 1998, dated 2005)

- melting point: 158 to 160 °C
Compound: COC(=O)C1(Cc2ccccc2)CNC(C(C)NC(=O)Cc2cc(F)cc(F)c2)=N1 (stereo not shown) [Example 5, 2-[1-(3,5-difluorophenylacetamido)ethyl]-4-methoxycarbonyl-4-phenylmethyl-2-imidazoline]
